{
  "source": "patent US20210163459A1",
  "about": "“PESTICIDALLY ACTIVE AZETIDINE SULFONES AMIDE ISOXAZOLINE DERIVATIVES” (SYNGENTA CROP PROTECTION AG, priority 2018, published 2021)",
  "key": {"[1]": {"tested_on": "Euschistus heros", "assay": "Euschistus heros (Neotropical Brown Stink Bug) test on sprayed soybean leaves", "assay_type": "in vivo", "conditions": "120 h, application rate of 200 ppm, N2 nymphs, assessed 5 days after infestation in comparison to untreated samples, read-out: effect in at least one of the two categories (mortality or growth inhibition)", "experimental": "Euschistus heros(Neotropical Brown Stink Bug)\nSoybean leaves on agar in 24-well microtiter plates were sprayed with aqueous test solutions prepared from 10′000 ppm DMSO stock solutions. After drying the leaves were infested with N2 nymphs. The samples were assessed for mortality and growth inhibition in comparison to untreated samples 5 days after infestation.\nThe following compounds gave an effect of at least 80% in at least one of the two categories (mortality or growth inhibition) at an application rate of 200 ppm: A1, A2"}, "[2]": {"tested_on": "Spodoptera littoralis", "assay": "Spodoptera littoralis (Egyptian Cotton Leaf Worm) test on sprayed cotton leaf discs", "assay_type": "in vivo", "conditions": "foliar, 72 h, application rate of 200 ppm, L1 larvae, assessed 3 days after infestation in comparison to untreated samples, read-out: control (mortality, anti-feeding effect, growth inhibition)", "experimental": "Spodoptera littoralis (Egyptian Cotton Leaf Worm)\nCotton leaf discs were placed onto agar in 24-well microtiter plates and sprayed with aqueous test solutions prepared from 10′000 ppm DMSO stock solutions. After drying the leaf discs were infested with five L1 larvae. The samples were assessed for mortality, anti-feeding effect, and growth inhibition in comparison to untreated samples 3 days after infestation. Control of Spodoptera littoralis by a test sample is given when at least one of the categories mortality, anti-feedant effect, and growth inhibition is higher than the untreated sample."}},
  "data": [
    {"molecule": "COC(=O)OCN(C(=O)c1ccc(C2=NO[C@@](c3cc(Cl)c(F)c(Cl)c3)(C(F)(F)F)C2)cc1C)C1CN(S(=O)(=O)C(F)F)C1", "note": "[Compound A2, [[4-[(5S)-5-(3,5-dichloro-4-fluoro-phenyl)-5-(trifluoromethyl)-4H-isoxazol-3-yl]-2-methyl-benzoyl]-[1-(difluoromethylsulfonyl)azetidin-3-yl]amino]methyl methyl carbonate]", "values": [
      {"measurement": "percent effect (mortality or growth inhibition) at 200 ppm", "setting": "[1]", "result": "≥ 80", "unit": "%"},
      {"measurement": "mortality at 200 ppm", "setting": "[2]", "result": "≥ 80", "unit": "%"}
    ]}
  ]
}
